In the series the target is ATP-dependent translocase ABCB1 (Rattus norvegicus, UniProt P43245). Nature of the series: TP_TRANSPORTER: intracellular accumulation in mdr1b-expressing NIH3T3 cells. Format: functional, cell-based. Particulars: mouse.

Molecules are shown by their SMILES.

Chain of ATP-dependent translocase ABCB1 (P43245 whole entry): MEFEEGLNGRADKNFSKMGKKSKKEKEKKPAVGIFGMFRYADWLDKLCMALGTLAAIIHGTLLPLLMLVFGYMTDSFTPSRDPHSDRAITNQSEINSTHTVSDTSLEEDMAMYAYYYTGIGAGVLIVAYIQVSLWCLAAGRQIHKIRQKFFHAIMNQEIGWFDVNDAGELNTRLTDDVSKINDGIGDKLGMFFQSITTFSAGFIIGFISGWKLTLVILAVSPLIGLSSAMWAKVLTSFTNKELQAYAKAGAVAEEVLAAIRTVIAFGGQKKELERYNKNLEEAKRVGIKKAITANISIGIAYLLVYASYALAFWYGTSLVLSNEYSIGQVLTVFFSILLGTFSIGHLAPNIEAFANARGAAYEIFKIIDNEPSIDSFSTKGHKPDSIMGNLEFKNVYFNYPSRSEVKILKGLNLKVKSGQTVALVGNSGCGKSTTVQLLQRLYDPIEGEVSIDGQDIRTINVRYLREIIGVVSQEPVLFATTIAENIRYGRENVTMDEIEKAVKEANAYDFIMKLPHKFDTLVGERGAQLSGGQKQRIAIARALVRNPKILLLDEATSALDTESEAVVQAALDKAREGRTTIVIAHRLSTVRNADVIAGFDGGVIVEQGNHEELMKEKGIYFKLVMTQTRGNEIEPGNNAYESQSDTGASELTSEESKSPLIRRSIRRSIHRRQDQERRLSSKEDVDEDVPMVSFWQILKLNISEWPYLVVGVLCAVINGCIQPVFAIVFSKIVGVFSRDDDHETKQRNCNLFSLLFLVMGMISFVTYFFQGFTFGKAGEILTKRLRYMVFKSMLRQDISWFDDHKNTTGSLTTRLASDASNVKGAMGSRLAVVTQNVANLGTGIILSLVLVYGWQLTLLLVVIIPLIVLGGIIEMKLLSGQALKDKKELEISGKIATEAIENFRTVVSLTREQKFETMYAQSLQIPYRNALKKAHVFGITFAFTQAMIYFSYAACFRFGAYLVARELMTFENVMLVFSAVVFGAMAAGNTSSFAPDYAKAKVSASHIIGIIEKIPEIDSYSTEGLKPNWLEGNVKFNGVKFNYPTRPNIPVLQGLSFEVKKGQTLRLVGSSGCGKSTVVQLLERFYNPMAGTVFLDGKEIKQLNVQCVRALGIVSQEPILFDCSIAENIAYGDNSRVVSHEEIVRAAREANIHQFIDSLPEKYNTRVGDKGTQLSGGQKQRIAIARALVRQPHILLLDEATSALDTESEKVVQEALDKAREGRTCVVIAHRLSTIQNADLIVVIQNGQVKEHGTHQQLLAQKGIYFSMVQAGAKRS

Regarding `COC(=O)c1ccccc1-c1c2ccc(=N)cc-2oc2cc(N)ccc12.Cl` [RHODAMINE123], the Activity result was “substrate [+]”.

These data come from ChEMBL document CHEMBL2074111, “Functional characterization of the rat mdr1b encoded P-glycoprotein: not all inducing agents are substrates” (Carcinogenesis, 1997).
